# Test results: the kinase profiling compilation of Christmann-Franck et al. (2016)
# Assays:
# Assay in all cases: radiometric filter-binding kinase assay
# RPS6KA3 KD1 KD2 (human) = RPS6KA3 KD1 KD2 (human) (UniProt P51812)
# PIM2 (human) = PIM2 (human) (UniProt Q9P1W9)
# [1] = system: SGK1 (human), O00141 [S422D]
# PAK6 (human) = PAK6 (human) (UniProt Q9NQU5)
# PLK1 (human) = PLK1 (human) (UniProt P53350)
# RPS6KA5 KD1 KD2 (human) = RPS6KA5 KD1 KD2 (human) (UniProt O75582)
# PKN2 (human) = PKN2 (human) (UniProt Q16513)
# PKN2 (human), sequence (Q16513 whole entry, looked up): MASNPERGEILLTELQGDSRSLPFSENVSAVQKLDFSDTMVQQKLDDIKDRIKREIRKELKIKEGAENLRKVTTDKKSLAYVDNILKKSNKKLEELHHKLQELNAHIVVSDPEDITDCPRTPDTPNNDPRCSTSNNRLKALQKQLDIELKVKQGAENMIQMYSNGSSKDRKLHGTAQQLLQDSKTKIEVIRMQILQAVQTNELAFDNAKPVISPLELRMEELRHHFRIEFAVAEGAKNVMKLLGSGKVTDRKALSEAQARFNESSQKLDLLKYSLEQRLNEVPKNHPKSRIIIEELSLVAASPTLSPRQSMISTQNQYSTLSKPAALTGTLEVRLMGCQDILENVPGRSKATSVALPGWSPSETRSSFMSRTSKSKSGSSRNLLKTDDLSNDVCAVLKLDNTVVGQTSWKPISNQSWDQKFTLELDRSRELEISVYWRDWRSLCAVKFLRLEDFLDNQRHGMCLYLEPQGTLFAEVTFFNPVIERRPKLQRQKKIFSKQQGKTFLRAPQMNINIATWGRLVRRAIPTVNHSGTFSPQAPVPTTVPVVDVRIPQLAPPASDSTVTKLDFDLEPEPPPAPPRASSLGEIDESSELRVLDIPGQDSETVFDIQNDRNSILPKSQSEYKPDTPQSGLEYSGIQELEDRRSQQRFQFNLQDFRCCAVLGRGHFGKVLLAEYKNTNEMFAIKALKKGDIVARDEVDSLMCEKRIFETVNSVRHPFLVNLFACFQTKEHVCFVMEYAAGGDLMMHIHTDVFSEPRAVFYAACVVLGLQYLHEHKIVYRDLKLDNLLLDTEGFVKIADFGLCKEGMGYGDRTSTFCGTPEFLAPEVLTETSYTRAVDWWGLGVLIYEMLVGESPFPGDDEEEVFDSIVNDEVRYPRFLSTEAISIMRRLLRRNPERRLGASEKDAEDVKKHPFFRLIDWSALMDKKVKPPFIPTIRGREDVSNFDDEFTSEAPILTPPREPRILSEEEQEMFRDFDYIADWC
# MAPK3 (human) = MAPK3 (human) (UniProt P27361)
# NEK2 (human) = NEK2 (human) (UniProt P51955)
# NEK2 (human), sequence (P51955 whole entry, looked up): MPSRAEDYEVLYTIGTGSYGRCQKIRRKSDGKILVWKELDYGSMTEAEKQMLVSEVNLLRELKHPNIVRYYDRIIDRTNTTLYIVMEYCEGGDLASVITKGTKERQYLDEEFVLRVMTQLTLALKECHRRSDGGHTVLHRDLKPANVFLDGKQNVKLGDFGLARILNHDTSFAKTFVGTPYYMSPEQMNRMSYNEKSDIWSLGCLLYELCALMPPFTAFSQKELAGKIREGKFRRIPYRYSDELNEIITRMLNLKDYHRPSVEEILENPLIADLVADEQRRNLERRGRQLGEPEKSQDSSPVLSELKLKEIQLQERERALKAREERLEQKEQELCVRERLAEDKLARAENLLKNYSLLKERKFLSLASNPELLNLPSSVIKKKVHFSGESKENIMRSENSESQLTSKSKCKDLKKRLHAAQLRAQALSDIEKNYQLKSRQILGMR
# HIPK3 (human) = HIPK3 (human) (UniProt Q9H422)
# PIM3 (human) = PIM3 (human) (UniProt Q86V86)
# PAK4 (human) = PAK4 (human) (UniProt O96013)
# PAK4 (human), sequence (O96013 whole entry, looked up): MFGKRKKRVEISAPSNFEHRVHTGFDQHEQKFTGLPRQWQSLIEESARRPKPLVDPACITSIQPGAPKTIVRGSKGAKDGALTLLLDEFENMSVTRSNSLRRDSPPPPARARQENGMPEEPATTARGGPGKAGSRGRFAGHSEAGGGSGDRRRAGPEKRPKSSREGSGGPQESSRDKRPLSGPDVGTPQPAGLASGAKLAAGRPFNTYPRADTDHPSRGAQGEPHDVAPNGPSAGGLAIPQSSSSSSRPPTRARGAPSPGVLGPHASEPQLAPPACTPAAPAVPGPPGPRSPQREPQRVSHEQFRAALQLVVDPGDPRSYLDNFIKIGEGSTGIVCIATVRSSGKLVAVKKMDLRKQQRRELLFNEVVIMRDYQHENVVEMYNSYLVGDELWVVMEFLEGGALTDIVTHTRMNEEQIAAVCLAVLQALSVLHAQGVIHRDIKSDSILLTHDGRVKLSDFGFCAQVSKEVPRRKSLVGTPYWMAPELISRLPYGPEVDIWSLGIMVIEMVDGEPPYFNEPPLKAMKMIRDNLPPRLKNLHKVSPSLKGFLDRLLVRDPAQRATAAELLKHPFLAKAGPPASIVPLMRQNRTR
# [2] = system: AKT2 (human), P31751 [S474D]
# MAPK12 (human) = MAPK12 (human) (UniProt P53778)
# MAPK12 (human), sequence (P53778 whole entry, looked up): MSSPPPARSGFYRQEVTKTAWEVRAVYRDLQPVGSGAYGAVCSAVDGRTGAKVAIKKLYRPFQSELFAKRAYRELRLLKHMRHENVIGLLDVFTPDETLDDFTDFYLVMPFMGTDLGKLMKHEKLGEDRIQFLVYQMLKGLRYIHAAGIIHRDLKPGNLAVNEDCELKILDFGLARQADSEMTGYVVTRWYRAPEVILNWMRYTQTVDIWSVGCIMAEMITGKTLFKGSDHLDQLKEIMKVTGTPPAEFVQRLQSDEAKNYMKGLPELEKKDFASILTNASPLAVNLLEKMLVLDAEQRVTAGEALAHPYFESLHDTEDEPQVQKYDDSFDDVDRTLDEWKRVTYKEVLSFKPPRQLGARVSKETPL
# SRPK1 (human) = SRPK1 (human) (UniProt Q96SB4)
# SRPK1 (human), sequence (Q96SB4 whole entry, looked up): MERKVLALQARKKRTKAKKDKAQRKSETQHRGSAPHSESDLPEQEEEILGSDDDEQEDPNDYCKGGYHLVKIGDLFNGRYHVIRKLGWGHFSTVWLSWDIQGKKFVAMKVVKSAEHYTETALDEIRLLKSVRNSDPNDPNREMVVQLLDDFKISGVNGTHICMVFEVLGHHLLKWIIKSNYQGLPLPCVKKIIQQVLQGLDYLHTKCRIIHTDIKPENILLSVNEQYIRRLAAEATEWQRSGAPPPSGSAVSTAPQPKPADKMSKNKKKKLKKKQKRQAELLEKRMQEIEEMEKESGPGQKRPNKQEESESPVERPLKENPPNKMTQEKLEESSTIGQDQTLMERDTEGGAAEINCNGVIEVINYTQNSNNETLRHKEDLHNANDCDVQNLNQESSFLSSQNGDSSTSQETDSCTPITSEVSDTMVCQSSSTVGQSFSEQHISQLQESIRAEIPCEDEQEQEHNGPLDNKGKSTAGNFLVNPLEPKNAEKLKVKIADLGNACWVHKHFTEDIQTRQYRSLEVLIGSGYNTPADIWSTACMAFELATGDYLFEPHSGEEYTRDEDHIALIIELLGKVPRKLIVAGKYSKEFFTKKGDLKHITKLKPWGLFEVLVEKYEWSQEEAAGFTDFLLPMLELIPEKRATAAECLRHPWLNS
# CSNK1D (human) = CSNK1D (human) (UniProt P48730)
# MAPK15 (human) = MAPK15 (human) (UniProt Q8TD08)
# MAPK15 (human), sequence (Q8TD08 whole entry, looked up): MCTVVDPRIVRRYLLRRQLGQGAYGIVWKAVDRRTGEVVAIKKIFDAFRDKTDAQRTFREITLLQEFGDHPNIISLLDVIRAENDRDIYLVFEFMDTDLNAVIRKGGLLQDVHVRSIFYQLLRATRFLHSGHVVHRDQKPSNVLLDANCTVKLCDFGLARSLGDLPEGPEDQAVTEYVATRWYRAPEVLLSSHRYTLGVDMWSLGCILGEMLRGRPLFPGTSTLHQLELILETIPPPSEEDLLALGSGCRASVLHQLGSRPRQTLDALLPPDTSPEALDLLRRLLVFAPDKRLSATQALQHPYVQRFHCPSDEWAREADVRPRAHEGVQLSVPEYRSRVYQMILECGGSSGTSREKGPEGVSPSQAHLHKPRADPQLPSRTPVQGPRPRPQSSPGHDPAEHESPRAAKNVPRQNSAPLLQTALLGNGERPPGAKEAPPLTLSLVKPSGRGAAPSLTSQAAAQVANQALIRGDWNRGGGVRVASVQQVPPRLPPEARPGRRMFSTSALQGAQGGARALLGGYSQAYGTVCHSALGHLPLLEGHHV
# CAMKK2 (human) = CAMKK2 (human) (UniProt Q96RR4)
# PAK7 (human) = PAK7 (human) (UniProt Q9P286)
# DYRK1A (human) = DYRK1A (human) (UniProt Q13627)
# MAPK14 (human) = MAPK14 (human) (UniProt Q16539)
# MAPKAPK2 (human) = MAPKAPK2 (human) (UniProt P49137)
# NEK6 (human) = NEK6 (human) (UniProt Q9HC98)
# CHEK1 (human) = CHEK1 (human) (UniProt O14757)
# PLK1 (human), sequence (P53350 whole entry, looked up): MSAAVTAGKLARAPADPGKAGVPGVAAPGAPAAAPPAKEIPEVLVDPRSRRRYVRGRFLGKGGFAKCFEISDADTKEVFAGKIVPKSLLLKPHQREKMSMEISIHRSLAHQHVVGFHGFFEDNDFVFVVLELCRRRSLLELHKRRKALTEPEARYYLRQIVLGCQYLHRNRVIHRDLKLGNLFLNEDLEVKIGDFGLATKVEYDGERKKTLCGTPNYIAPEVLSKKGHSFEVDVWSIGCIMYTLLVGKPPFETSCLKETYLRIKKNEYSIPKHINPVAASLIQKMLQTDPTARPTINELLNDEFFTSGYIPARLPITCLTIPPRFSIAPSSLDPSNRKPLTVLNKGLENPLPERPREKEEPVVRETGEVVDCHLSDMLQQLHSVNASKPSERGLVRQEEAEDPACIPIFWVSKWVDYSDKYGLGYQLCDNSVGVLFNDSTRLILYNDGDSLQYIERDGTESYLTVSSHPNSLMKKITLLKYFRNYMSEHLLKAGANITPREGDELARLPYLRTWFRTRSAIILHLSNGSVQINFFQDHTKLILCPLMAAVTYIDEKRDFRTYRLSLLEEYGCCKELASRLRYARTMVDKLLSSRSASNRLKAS
# RPS6KA5 KD1 KD2 (human), sequence (O75582 whole entry, looked up): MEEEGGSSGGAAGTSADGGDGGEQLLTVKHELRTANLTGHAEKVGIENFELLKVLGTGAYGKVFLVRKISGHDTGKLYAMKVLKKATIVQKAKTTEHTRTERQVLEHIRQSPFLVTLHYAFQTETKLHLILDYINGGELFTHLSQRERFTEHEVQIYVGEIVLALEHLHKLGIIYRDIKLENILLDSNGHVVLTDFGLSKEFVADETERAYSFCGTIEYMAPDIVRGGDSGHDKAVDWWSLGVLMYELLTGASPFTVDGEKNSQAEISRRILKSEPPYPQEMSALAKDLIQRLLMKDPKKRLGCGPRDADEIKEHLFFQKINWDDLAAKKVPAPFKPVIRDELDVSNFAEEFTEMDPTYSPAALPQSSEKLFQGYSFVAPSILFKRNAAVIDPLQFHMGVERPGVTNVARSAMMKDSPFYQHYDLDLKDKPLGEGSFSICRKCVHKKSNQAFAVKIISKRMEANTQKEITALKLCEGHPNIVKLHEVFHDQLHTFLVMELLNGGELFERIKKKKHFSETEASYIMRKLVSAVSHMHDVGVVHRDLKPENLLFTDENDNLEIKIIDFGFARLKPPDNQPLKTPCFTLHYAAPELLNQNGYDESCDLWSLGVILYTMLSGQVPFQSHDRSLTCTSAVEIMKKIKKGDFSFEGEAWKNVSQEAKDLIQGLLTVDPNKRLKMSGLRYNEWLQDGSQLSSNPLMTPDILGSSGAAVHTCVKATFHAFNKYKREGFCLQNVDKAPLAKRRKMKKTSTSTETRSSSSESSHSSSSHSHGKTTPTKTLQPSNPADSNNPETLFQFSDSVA
structure (smiles),measurement,setting,value
Cc1cccc(Nc2nn(C)c3ncnc(N)c23)c1,residual activity,RPS6KA3 KD1 KD2 (human); compound 1.0 µM,88%
same,residual activity,RPS6KA3 KD1 KD2 (human); compound 10.0 µM,99%
same,residual activity,PIM2 (human); compound 1.0 µM,115%
same,residual activity,PIM2 (human); compound 10.0 µM,113%
same,residual activity,[1]; compound 1.0 µM,104%
same,residual activity,[1]; compound 10.0 µM,113%
same,residual activity,PAK6 (human); compound 1.0 µM,103%
same,residual activity,PAK6 (human); compound 10.0 µM,102%
same,residual activity,PLK1 (human); compound 1.0 µM,96%
same,residual activity,PLK1 (human); compound 10.0 µM,106%
same,residual activity,RPS6KA5 KD1 KD2 (human); compound 1.0 µM,92%
same,residual activity,RPS6KA5 KD1 KD2 (human); compound 10.0 µM,100%
same,residual activity,PKN2 (human); compound 1.0 µM,119%
same,residual activity,PKN2 (human); compound 10.0 µM,110%
same,residual activity,MAPK3 (human); compound 1.0 µM,114%
same,residual activity,MAPK3 (human); compound 10.0 µM,108%
same,residual activity,NEK2 (human); compound 1.0 µM,107%
same,residual activity,NEK2 (human); compound 10.0 µM,115%
same,residual activity,HIPK3 (human); compound 1.0 µM,136%
same,residual activity,HIPK3 (human); compound 10.0 µM,138%
same,residual activity,PIM3 (human); compound 1.0 µM,120%
same,residual activity,PIM3 (human); compound 10.0 µM,121%
same,residual activity,PAK4 (human); compound 1.0 µM,86%
same,residual activity,PAK4 (human); compound 10.0 µM,95%
same,residual activity,[2]; compound 1.0 µM,95%
same,residual activity,[2]; compound 10.0 µM,100%
same,residual activity,MAPK12 (human); compound 1.0 µM,120%
same,residual activity,MAPK12 (human); compound 10.0 µM,132%
same,residual activity,SRPK1 (human); compound 1.0 µM,107%
same,residual activity,SRPK1 (human); compound 10.0 µM,98%
same,residual activity,CSNK1D (human); compound 1.0 µM,77%
same,residual activity,CSNK1D (human); compound 10.0 µM,87%
same,residual activity,MAPK15 (human); compound 1.0 µM,76%
same,residual activity,MAPK15 (human); compound 10.0 µM,93%
same,residual activity,CAMKK2 (human); compound 1.0 µM,125%
same,residual activity,CAMKK2 (human); compound 10.0 µM,117%
same,residual activity,PAK7 (human); compound 1.0 µM,139%
same,residual activity,PAK7 (human); compound 10.0 µM,124%
same,residual activity,DYRK1A (human); compound 1.0 µM,90%
same,residual activity,DYRK1A (human); compound 10.0 µM,101%
same,residual activity,MAPK14 (human); compound 1.0 µM,118%
same,residual activity,MAPK14 (human); compound 10.0 µM,122%
same,residual activity,MAPKAPK2 (human); compound 1.0 µM,101%
same,residual activity,MAPKAPK2 (human); compound 10.0 µM,104%
same,residual activity,NEK6 (human); compound 1.0 µM,73%
same,residual activity,NEK6 (human); compound 10.0 µM,81%
same,residual activity,CHEK1 (human); compound 1.0 µM,109%
same,residual activity,CHEK1 (human); compound 10.0 µM,115%
COc1ccc2c(c1)c1c3c(c4c5ccccc5n(C)c4c1n2CC(O)CN(C)C)C(=O)NC3=O (stereo not given),residual activity,RPS6KA3 KD1 KD2 (human); compound 0.1 µM,3%
same,residual activity,RPS6KA3 KD1 KD2 (human); compound 1.0 µM,0%
same,residual activity,RPS6KA3 KD1 KD2 (human); compound 10.0 µM,0%
same,residual activity,PIM2 (human); compound 0.1 µM,38%
same,residual activity,PIM2 (human); compound 1.0 µM,6%
same,residual activity,PIM2 (human); compound 10.0 µM,1%
same,residual activity,[1]; compound 0.1 µM,69%
same,residual activity,[1]; compound 1.0 µM,25%
same,residual activity,[1]; compound 10.0 µM,6%
same,residual activity,PAK6 (human); compound 0.1 µM,107%
same,residual activity,PAK6 (human); compound 1.0 µM,82%
same,residual activity,PAK6 (human); compound 10.0 µM,71%
same,residual activity,PLK1 (human); compound 0.1 µM,99%
same,residual activity,PLK1 (human); compound 1.0 µM,98%
same,residual activity,PLK1 (human); compound 10.0 µM,79%
same,residual activity,RPS6KA5 KD1 KD2 (human); compound 0.1 µM,11%
same,residual activity,RPS6KA5 KD1 KD2 (human); compound 1.0 µM,3%
same,residual activity,RPS6KA5 KD1 KD2 (human); compound 10.0 µM,3%
same,residual activity,PKN2 (human); compound 0.1 µM,63%
same,residual activity,PKN2 (human); compound 1.0 µM,13%
same,residual activity,PKN2 (human); compound 10.0 µM,4%
same,residual activity,MAPK3 (human); compound 0.1 µM,94%
same,residual activity,MAPK3 (human); compound 1.0 µM,102%
same,residual activity,MAPK3 (human); compound 10.0 µM,96%
same,residual activity,NEK2 (human); compound 0.1 µM,95%
same,residual activity,NEK2 (human); compound 1.0 µM,80%
same,residual activity,NEK2 (human); compound 10.0 µM,59%
same,residual activity,HIPK3 (human); compound 0.1 µM,108%
same,residual activity,HIPK3 (human); compound 1.0 µM,106%
same,residual activity,HIPK3 (human); compound 10.0 µM,59%
same,residual activity,PIM3 (human); compound 0.1 µM,2%
same,residual activity,PIM3 (human); compound 1.0 µM,1%
same,residual activity,PIM3 (human); compound 10.0 µM,1%
same,residual activity,PAK4 (human); compound 0.1 µM,99%
same,residual activity,PAK4 (human); compound 1.0 µM,82%
same,residual activity,PAK4 (human); compound 10.0 µM,66%
same,residual activity,[2]; compound 0.1 µM,80%
same,residual activity,[2]; compound 1.0 µM,44%
same,residual activity,[2]; compound 10.0 µM,13%
same,residual activity,MAPK12 (human); compound 0.1 µM,99%
same,residual activity,MAPK12 (human); compound 1.0 µM,90%
same,residual activity,MAPK12 (human); compound 10.0 µM,74%
same,residual activity,SRPK1 (human); compound 0.1 µM,113%
same,residual activity,SRPK1 (human); compound 1.0 µM,89%
same,residual activity,SRPK1 (human); compound 10.0 µM,77%
same,residual activity,CSNK1D (human); compound 0.1 µM,103%
same,residual activity,CSNK1D (human); compound 1.0 µM,83%
same,residual activity,CSNK1D (human); compound 10.0 µM,68%
same,residual activity,MAPK15 (human); compound 0.1 µM,78%
same,residual activity,MAPK15 (human); compound 1.0 µM,53%
same,residual activity,MAPK15 (human); compound 10.0 µM,54%
same,residual activity,CAMKK2 (human); compound 0.1 µM,113%
same,residual activity,CAMKK2 (human); compound 1.0 µM,68%
same,residual activity,CAMKK2 (human); compound 10.0 µM,37%
same,residual activity,PAK7 (human); compound 0.1 µM,108%
same,residual activity,PAK7 (human); compound 1.0 µM,81%
same,residual activity,PAK7 (human); compound 10.0 µM,85%
same,residual activity,DYRK1A (human); compound 0.1 µM,96%
same,residual activity,DYRK1A (human); compound 1.0 µM,68%
same,residual activity,DYRK1A (human); compound 10.0 µM,41%
same,residual activity,MAPK14 (human); compound 0.1 µM,107%
same,residual activity,MAPK14 (human); compound 1.0 µM,106%
same,residual activity,MAPK14 (human); compound 10.0 µM,86%
same,residual activity,MAPKAPK2 (human); compound 0.1 µM,107%
same,residual activity,MAPKAPK2 (human); compound 1.0 µM,93%
same,residual activity,MAPKAPK2 (human); compound 10.0 µM,62%
same,residual activity,NEK6 (human); compound 0.1 µM,99%
same,residual activity,NEK6 (human); compound 1.0 µM,87%
same,residual activity,NEK6 (human); compound 10.0 µM,84%
same,residual activity,CHEK1 (human); compound 0.1 µM,56%
same,residual activity,CHEK1 (human); compound 1.0 µM,13%
same,residual activity,CHEK1 (human); compound 10.0 µM,4%
